Marks after values point to notes of the source that are not given here.
Key:
Arcanobacterium piogenes = test: MIC; format: cell-based
Micrococcus luteus = test: MIC, liquid culture dilution; format: cell-based
Escherichia coli = test: MIC, liquid culture dilution (single chelates and cross-dilution combinations); format: cell-based
Salmonella enterica = test: as above; format: cell-based, Salmonella enterica subp. Enterica serovar enteritidis
LACTIC ACID PRODUCERS = test: MIC, liquid culture dilution; format: cell-based
Saccharomyces cerevisiae = test: MIC, liquid culture dilution; format: cell-based
Staphylococcus aureus = test: MIC, liquid culture dilution; format: cell-based
Streptococcus agalactiae = test: MIC, liquid culture dilution; format: cell-based
Clostridium perfringens [1] = format: cell-based
[2] = tested on: Brachyspira hyodysenteriae; test: MIC (single chelates and combinations)
Clostridium perfringens [3] = settings: treatment group III
Lawsonia intracellularis = tested on: Lawsonia intracellularis
Procedure: Experimental feeding was performed with growing pigs, under pilot environmental conditions with the animal paired methods on a stock infected with the pathogen Lawsonia intracellularis. The control group received the usual antibiotic supplement mixed into the feed.

Clostridium perfringens [4] = tested on: Clostridium perfringens
E. coli = tested on: E. coli
Source text: The experimental animals had E. coli infection. The control group received the standard antibiotic supplement in the feed to control the E. coli infection.

[5] = 1 kg/t in feed, 101 days of fattening
[6] = vs antibiotic-supplemented control

Compound	Minimal inhibitory concentration (MIC) (Escherichia coli)	Minimal inhibitory concentration (MIC) (Salmonella enterica)	Minimal inhibitory concentration (MIC) (LACTIC ACID PRODUCERS)	Minimal inhibitory concentration (MIC) (Saccharomyces cerevisiae)	Minimal inhibitory concentration (MIC) (Clostridium perfringens [1])	Minimal inhibitory concentration (MIC) [2]	also measured
NCC(=O)[O-].[Ag+] [Ag glycinate]							Minimal inhibitory concentration (MIC) (Arcanobacterium piogenes): 184 ppm
NCC(=O)[O-].NCC(=O)[O-].O.[Cu+2] [Copper (H2O) bis-glycinate]	300 ppm	400 ppm	800 ppm	800 ppm	100 ppm	96 ppm	Minimal inhibitory concentration (MIC) (Micrococcus luteus): 60 ppm; Minimal inhibitory concentration (MIC) (Staphylococcus aureus): 5.3 ppm; Minimal inhibitory concentration (MIC) (Streptococcus agalactiae): 171 ppm; Minimal inhibitory concentration (MIC) (Arcanobacterium piogenes): 32 ppm
[NH3+][Cu]1([NH3+])[O]C(=O)CN(CC(=O)O)CCN(CC(=O)O)CC(=O)[O]1 [Cu diamino ethylenediamine tetraacetic acid]					20 ppm	80 ppm	Egg yield increase compared to the negative control group (Clostridium perfringens [3]): 6.7%; Egg yield increase compared to the positive control group (Clostridium perfringens [3]): 22.4%; Total eggs (Clostridium perfringens [3]; 36 hens, C. perfringens inoculated): 1868 pc.; No. of eggs/hen (Clostridium perfringens [3]; C. perfringens inoculated): 51.80; Total egg weight (Clostridium perfringens [3]; C. perfringens inoculated): 125.70 kg; Weight of egg (Clostridium perfringens [3]; g/pc.): 67.2 g
[NH3+][Cu]([NH3+])([O]C(=O)C(O)CC(=O)O)[O]C(=O)C(O)CC(=O)O (stereo not shown) [Cu diammine bis-malate]	262 ppm				65 ppm	143 ppm	Minimal inhibitory concentration (MIC) (Staphylococcus aureus): 262 ppm; Minimal inhibitory concentration (MIC) (Streptococcus agalactiae): 131 ppm
O.O=C(O)CC(O)C(=O)[O-].O=C(O)CC(O)C(=O)[O-].[Cu+2] (stereo not shown) [Cu(H2O) bis-malate]	120 ppm	210 ppm			50 ppm	88 ppm	
O=C(O)CC(O)C(=O)[O-].O=C(O)CC(O)C(=O)[O-].[Zn+2] (stereo not shown) [Zn bis-malate]	280 ppm	360 ppm	600 ppm	600 ppm			
[NH2][Zn]1([NH2])[O]C(=O)CN(CC(=O)O)CCN(CC(=O)O)CC(=O)[O]1 [Zn diamino ethylenediamine tetraacetic acid]					100 ppm	>4000 ppm	
[NH2][Zn]([NH2])([O]C(=O)C(O)CC(=O)O)[O]C(=O)C(O)CC(=O)O (stereo not shown) [Zn diammine bis-malate, Zn diammonium malate]	80 ppm	120 ppm	500 ppm	500 ppm	340 ppm	2315 ppm	Minimal inhibitory concentration (MIC) (Staphylococcus aureus): 80 ppm; Minimal inhibitory concentration (MIC) (Streptococcus agalactiae): 20 ppm; Minimal inhibitory concentration (MIC) (Arcanobacterium piogenes): 21 ppm
O=C([O-])CN(CCN(CC(=O)O)CC(=O)O)CC(=O)[O-].[Zn+2] [Zn ethylenediamine-tetraacetic acid]					1000 ppm	450 ppm	
C[C@H](N)C(=O)[O-].C[C@H](N)C(=O)[O-].O.[Zn+2] [Zn(H2O) bis-alaninate]	100 ppm	110 ppm			>4000 ppm	>4000 ppm	
NCC(=O)[O][Cu]([NH3+])([NH3+])[O]C(=O)CN [copper diammonium bis-glycinate]							Added weight (Lawsonia intracellularis; [5]): 76.15 kg; Average slaughter weight (Lawsonia intracellularis; [5]): 107.01 kg; Feed utilization (Lawsonia intracellularis; [5]): 3.10 kg/kg; Added weight higher than control (Lawsonia intracellularis; [6]): 6.2%; Feed utilization better than control (Lawsonia intracellularis; [6]): 6.8%; Slaughter weight higher than control (Lawsonia intracellularis; [6]): 1.6%; Relative feed utilization (Clostridium perfringens [4]; 1.0 kg/t in feed, 42 days): 1.89 kg/kg; Total feed use (Clostridium perfringens [4]; 1.0 kg/t in feed, 42 days): 59 880 kg; Total living weight (Clostridium perfringens [4]; 1.0 kg/t in feed, 42 days): 32 395 kg; Total weight gain (Clostridium perfringens [4]; 1.0 kg/t in feed, 42 days): 31 681 kg; Chicken shipped (Clostridium perfringens [4]; 1.0 kg/t in feed, 42 days, 17 100 chicks at start): 16 238; Mean slaughter weight (Clostridium perfringens [4]; 1.0 kg/t in feed, 42 days, difference significant at P ≤ 0.001): 1995*** g; Faeces, signs of diarrhea (Clostridium perfringens [4]; experimental group, observation): no signs of a change indicating diarrhea was visible; Adverse side effects (Clostridium perfringens [4]; feeding the experimental composition, 1.0 kg/t): No adverse side effects were observed; Chicken shipped, difference to control group (Clostridium perfringens [4]; vs unsupplemented control): 4; Relative feed utilization, difference to control group (less feed per unit live weight gain) (Clostridium perfringens [4]; vs unsupplemented control): 3.6%; Total feed use, difference to control group (Clostridium perfringens [4]; vs unsupplemented control): 620 kg
Cu diaminonitrolo triacetic acid					120 ppm	200 ppm	
Cu nitrolo triacetic acid					>4000 ppm	450 ppm	
Iron mono-glycinate	350 ppm	450 ppm	1000 ppm	1000 ppm			Minimal inhibitory concentration (MIC) (Micrococcus luteus): 100 ppm
Manganese mono-glycinate	300 ppm	300 ppm	1000 ppm	1000 ppm			Minimal inhibitory concentration (MIC) (Micrococcus luteus): 100 ppm
Zn (H2O)2-ethylenediamine tetraacetic acid					400 ppm	320 ppm	
Zn diaminonitrolo triacetic acid					400 ppm	600 ppm	
Zn malate [Zn(H2O)-bis-malate]	90 ppm	120 ppm	500 ppm	600 ppm	360 ppm	4400 ppm	Minimal inhibitory concentration (MIC) (Staphylococcus aureus): 160 ppm; Minimal inhibitory concentration (MIC) (Streptococcus agalactiae): 180 ppm
Zn(Glycine)2 [Zinc (H2O) bis-glycinate]	120 ppm	220 ppm	800 ppm	500 ppm	180 ppm	>4000 ppm	Minimal inhibitory concentration (MIC) (Micrococcus luteus): 60 ppm; Minimal inhibitory concentration (MIC) (Staphylococcus aureus): 4 ppm; Minimal inhibitory concentration (MIC) (Streptococcus agalactiae): 29 ppm
zinc ammonium maleinate							Daily weight gain (E. coli; 38 days): 391 g; Feed utilization (E. coli; 38 days): 2.04 kg/kg; Body weight at the end of the experiment (E. coli; 38 days, initial weight 9.19 kg): 24.05 kg; Average daily weight gain higher than control group (E. coli; [6]): 45%; Feed utilization better than control group (E. coli; [6]): 13%
